# Data published in US10214512B2, “Factor XIA inhibitors” (MERCK SHARP & DOHME CORP., priority 2015, dated 2019).
# Read-outs that look alike come from different tables or passages of the source.
# Assays:
# [1] = target: purified human Factor XIa (Homo sapiens (Human), UniProt P03951); assay: Factor XIa Assay; type: biochemical; conditions: purified human Factor XIa 40 pM; substrate Z-Gly-Pro-Arg-AFC 100 μM; 50 mM HEPES pH 7.4; read-out: Human FXIa Ki
# Summary of the method: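 Purified human FXIa at 40 pM final with fluorogenic Z-Gly-Pro-Arg-AFC at 100 μM, in 50 mM HEPES pH 7.4, 150 mM NaCl, 5 mM CaCl2, 0.1% PEG 8000, at rt or 37° C. Initial velocities measured after enzyme–inhibitor equilibration; Ki derived from Vo/Vi versus [I] assuming competitive inhibition.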
# [2] = target: purified Human plasma Kallikrein (Homo sapiens (Human), UniProt P03952); assay: Kallikrein Assay; type: biochemical
# Summary of the method: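 Purified human plasma kallikrein (0.5 nM) with fluorogenic Ac-K-P-R-AFC ([…]) in 50 mM HEPES pH 7.4, 150 mM NaCl, 5 mM CaCl2, 0.1% PEG 8000, at rt or 37 °C. Substrate hydrolysis rate read with and without inhibitor; IC50 from four-parameter logistic fit, converted to Ki by Cheng–Prusoff.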
# [3] = purified Human plasma Kallikrein 0.5 nM, substrate Acetyl-K-P-R-AFC, 50 mM HEPES pH 7.4, Ki from IC50 by Cheng Prusoff
# Chain of purified Human plasma Kallikrein (P03952 391-638): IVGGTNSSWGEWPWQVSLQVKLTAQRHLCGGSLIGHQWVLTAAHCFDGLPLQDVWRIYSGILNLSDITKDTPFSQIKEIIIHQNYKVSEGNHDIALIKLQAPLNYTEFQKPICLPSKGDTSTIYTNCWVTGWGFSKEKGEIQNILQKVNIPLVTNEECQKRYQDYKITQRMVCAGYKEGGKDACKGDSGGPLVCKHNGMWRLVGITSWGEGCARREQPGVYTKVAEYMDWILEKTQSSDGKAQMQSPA
# Chain of purified Human plasma Kallikrein (P03952 20-390 partner): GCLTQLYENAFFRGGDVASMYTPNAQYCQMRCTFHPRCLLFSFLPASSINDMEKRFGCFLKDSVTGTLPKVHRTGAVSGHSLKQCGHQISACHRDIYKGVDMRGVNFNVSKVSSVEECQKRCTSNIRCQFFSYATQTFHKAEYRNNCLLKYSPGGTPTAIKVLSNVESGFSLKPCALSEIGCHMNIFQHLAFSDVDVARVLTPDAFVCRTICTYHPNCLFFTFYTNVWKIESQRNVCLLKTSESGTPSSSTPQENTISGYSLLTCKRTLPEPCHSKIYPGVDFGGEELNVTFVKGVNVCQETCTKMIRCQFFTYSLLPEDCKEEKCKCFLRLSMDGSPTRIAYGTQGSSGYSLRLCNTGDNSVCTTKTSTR
# Chain of purified human Factor XIa (P03951 388-625): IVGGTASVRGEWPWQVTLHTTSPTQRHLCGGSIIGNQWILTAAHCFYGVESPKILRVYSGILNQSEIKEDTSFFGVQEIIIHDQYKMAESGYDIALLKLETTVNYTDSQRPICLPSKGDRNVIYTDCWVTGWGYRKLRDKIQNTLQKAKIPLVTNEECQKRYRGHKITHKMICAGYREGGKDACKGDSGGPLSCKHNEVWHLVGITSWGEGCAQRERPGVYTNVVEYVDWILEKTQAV
# Chain of purified human Factor XIa (P03951 19-387 partner): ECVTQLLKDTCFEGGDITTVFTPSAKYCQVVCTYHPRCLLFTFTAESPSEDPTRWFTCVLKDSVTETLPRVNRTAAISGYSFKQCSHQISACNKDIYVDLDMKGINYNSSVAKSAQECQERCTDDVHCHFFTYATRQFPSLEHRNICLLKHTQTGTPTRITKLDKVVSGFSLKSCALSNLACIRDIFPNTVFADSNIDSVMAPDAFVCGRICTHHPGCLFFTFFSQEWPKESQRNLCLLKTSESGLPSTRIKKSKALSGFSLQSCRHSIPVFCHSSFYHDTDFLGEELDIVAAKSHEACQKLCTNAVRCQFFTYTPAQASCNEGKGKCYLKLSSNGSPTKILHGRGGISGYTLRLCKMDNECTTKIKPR
SMILES,Ki [1],"Ki [2, 3]",Ki [2]
"C[C@@H]1CCC[C@H](c2ccc(-c3cc(Cl)ccc3-n3cc(Cl)nn3)c[n+]2[O-])c2cccc(c2)-c2c(cnn2C(F)F)NC1=O (single isomer, unassigned) [Example 166-a]",0.14 nM,1.39 nM,–
"O=C1CCCC[C@H](c2ccc(-c3cc(Cl)ccc3-n3cc(C(F)(F)F)cn3)c[n+]2[O-])c2cccc(c2)-c2c(cnn2C(F)F)N1 (single isomer, unassigned) [Example 167]",1.37 nM,376 nM,–
"N#Cc1cnn(-c2ccc(Cl)cc2-c2ccc([C@H]3CCCCC(=O)Nc4cnn(C(F)F)c4-c4cccc3c4)[n+]([O-])c2)c1 (single isomer, unassigned) [Example 169]",3.8 nM,94.2 nM,–
"C[C@@H]1CCC[C@H](c2ccc(-c3ccccc3-n3cc(Cl)nn3)c[n+]2[O-])c2cccc(c2)-c2c(cnn2C(F)F)NC1=O (single isomer, unassigned) [Example 172-a]",1.37 nM,376 nM,–
"O=C1CCCC[C@H](c2ccc(-c3cc(Cl)ccc3-n3cnnn3)cn2)c2cccc(c2)-c2cc(F)ccc2N1 [Example 1-a, (S)-9-(5-(5-Chloro-2-(1H-tetrazol-1-yl)phenyl)pyridin-2-yl)-2^5-fluoro-3-aza-1(1,3),2(1,2)-dibenzenacyclononaphan-4-one]",22.3 nM,205 nM,–
"O=C1CCCC[C@H](c2ccc(-c3cc(Cl)ccc3-n3cnnn3)c[n+]2[O-])c2cccc(c2)-c2cc(F)ccc2N1 [Example 2-a, (S) 5-(5-chloro-2-(1H-tetrazol-1-yl)phenyl)-2-(2^5-fluoro-4-oxo-3-aza-1(1,3),2(1,2)-dibenzenacyclononaphane-9-yl)pyridine 1-oxide]",0.09 nM,2.7 nM,–
"C[C@@H]1CCC[C@@H](c2ccc(-c3cc(Cl)ccc3-n3cnnn3)c[n+]2[O-])c2cccc(c2)-c2cc(F)ccc2NC1=O [Example 3-a, 5-(5-chloro-2-(1H-tetrazol-1-yl)phenyl)-2-((5R,9R)-2^5-fluoro-5-methyl-4-oxo-3-aza-1(1,3),2(1,2)-dibenzenacyclononaphane-9-yl)pyridine 1-oxide]",27.7 nM,79.8 nM,–
"C[C@H]1CCC[C@H](c2ccc(-c3cc(Cl)ccc3-n3cnnn3)c[n+]2[O-])c2cccc(c2)-c2cc(F)ccc2NC1=O [Example 3-b, 5-(5-chloro-2-(1H-tetrazol-1-yl)phenyl)-2-((5S,9S)-2^5-fluoro-5-methyl-4-oxo-3-aza-1(1,3),2(1,2)-dibenzenacyclononaphane-9-yl)pyridine 1-oxide]",0.57 nM,10.6 nM,–
"C[C@H]1CCC[C@@H](c2ccc(-c3cc(Cl)ccc3-n3cnnn3)c[n+]2[O-])c2cccc(c2)-c2cc(F)ccc2NC1=O [Example 3-c, 5-(5-Chloro-2-(1H-tetrazol-1-yl)phenyl)-2-((5S,9R)-2^5-fluoro-5-methyl-4-oxo-3-aza-1(1,3),2(1,2)-dibenzenacyclononaphane-9-yl)pyridine 1-oxide]",26.3 nM,660 nM,–
"C[C@@H]1CCC[C@H](c2ccc(-c3cc(Cl)ccc3-n3cnnn3)c[n+]2[O-])c2cccc(c2)-c2cc(F)ccc2NC1=O [Example 3-d, 5-(5-Chloro-2-(1H-tetrazol-1-yl)phenyl)-2-((5R,9S)-2^5-fluoro-5-methyl-4-oxo-3-aza-1(1,3),2(1,2)-dibenzenacyclononaphane-9-yl)pyridine 1-oxide]",0.18 nM,0.59 nM,–
"O=C1CCCC[C@H](c2ccc(-c3cc(Cl)ccc3-n3cnnn3)c[n+]2[O-])c2cccc(c2)-c2cc(C(=O)O)ccc2N1 [Example 4-a, 2-(2^5-Carboxy-4-oxo-3-aza-1(1,3),2(1,2)-dibenzenacyclononaphane-9-yl)-5-(5-chloro-2-(1H-tetrazol-1-yl)phenyl)pyridine 1-oxide]",0.31 nM,–,3.41 nM
"O=C1CCCC[C@H](c2ccc(-c3cc(Cl)ccc3-n3cnnn3)c[n+]2[O-])c2cccc(c2)-c2cc(C(=O)O)ccc2N1 [Example 4-b, 2-(2^5-Carboxy-4-oxo-3-aza-1(1,3),2(1,2)-dibenzenacyclononaphane-9-yl)-5-(5-chloro-2-(1H-tetrazol-1-yl)phenyl)pyridine 1-oxide]",8.4 nM,–,332 nM
"CC1CCCC(c2ccc(-c3c(-n4cnnn4)ccc(Cl)c3F)c[n+]2[O-])c2cccc(c2)-c2cc(F)ccc2NC1=O (centres unmarked) [Example 8, 5,5-(3-chloro-2-fluoro-6-(1h-tetrazol-1-yl)phenyl)-2-(2^5-fluoro-5-methyl-4-oxo-3-aza-1(1,3),2(1,2)-dibenzenacyclononaphane-9-yl)pyridine 1-oxide]",0.41 nM,1.94 nM,–
"COC(=O)Nc1ccc2c(c1)NC(=O)CCCC[C@H](c1ccc(-c3cc(Cl)ccc3-n3cc(C(F)(F)F)nn3)c[n+]1[O-])c1cccc-2c1 [Example 39, (S)-5-(5-chloro-2-(4-(trifluoromethyl)-1H-1,2,3-triazol-1-yl)phenyl)-2-(2^4-((methoxycarbonyl)amino)-4-oxo-3-aza-1(1,3),2(1,2)-dibenzenacyclononaphane-9-yl)pyridine 1-oxide]",0.26 nM,0.81 nM,–
"CCOC(=O)Nc1ccc2c(c1)NC(=O)CCCC[C@H](c1ccc(-c3c(F)ccc(Cl)c3F)c[n+]1[O-])c1cccc-2c1 [Example 44, (s)-5-(3-chloro-2,6-difluorophenyl)-2-(2^4-((ethoxycarbonyl)amino)-4-oxo-3-aza-1(1,3),2(1,2)-dinenzenacyclononaphane-9-yl)pyridine 1-oxide]",1.23 nM,2.7 nM,–
"CC(C)(C)OCCOC(=O)Nc1ccc2c(c1)NC(=O)CCCC[C@H](c1ccc(-c3c(F)ccc(Cl)c3F)c[n+]1[O-])c1cccc-2c1 [Example 45, (S)-2-(2^4-(((2-(tert-butoxy)ethoxy)carbonyl)amino)-4-oxo-3-aza-1(1,3),2(1,2)-dinenzenacyclononaphane-9-yl)-5-(3-chloro-2,6-difluorophenyl)pyridine 1-oxide]",0.24 nM,0.44 nM,–
"O=C1CCCC[C@H](c2ccc(-c3c(F)ccc(Cl)c3F)c[n+]2[O-])c2cccc(c2)-c2ccc(Nc3cccnc3)cc2N1 [Example 47, 5-(3-chloro-2,6-difluorophenyl)-2-(4-oxo-2^4-(pyridin-3-ylamino)-3-aza-1(1,3),2(1,2)-dinenzenacyclononaphane-9-yl)pyridine 1-oxide]",1.89 nM,5.01 nM,–
"O=C1CCCC[C@H](c2ccc(-c3c(F)ccc(Cl)c3F)c[n+]2[O-])c2cccc(c2)-c2ccc(Nc3ncccn3)cc2N1 [Example 48, (S)-5-(3-chloro-2,6-difluorophenyl)-2-(4-oxo-2^4-(pyrimidin-2-YLAMINO)-3-AZA-1 (1,3),2(1,2)-dinenzenacyclononaphane-9-yl)pyridine 1-oxide]",2.1 nM,1.76 nM,–
"COC(=O)Nc1ccc2c(c1)NC(=O)CCCCC(c1ccc(-c3cc(Cl)ccc3-n3cnnn3)cn1)c1cc(F)cc-2c1 (centres unmarked) [Example 51, Methyl (9-(5-(5-chloro-2-(1H-tetrazol-1-yl)phenyl)pyridin-2-yl)-1^5-fluoro-4-oxo-3-aza-1(1,3),2(1,2)-dinenzenacyclononaphane-2^4-yl)carbamate]",2.76 nM,46.6 nM,–
